Usually EC50 stands for the midpoint of the concentration-response curve. As usually defined, the bioavailability is dose-corrected exposure relative to a reference, in per cent.

The target of one data set is T1, TRβ-LBD/RXRα (Homo sapiens, UniProt P10828).
T1 construct: TRβ-LBD (Invitrogen, PV4764) with a GST tag were used; purchased Invitrogen (TRβ-LBD); Pharmaron (RXRα) PV4764
Nature of the data set: In vitro binding experiment (TR-FRET SRC2-2 co-activator peptide recruitment), TRβ. The settings on record: 4 h incubation at room temperature. The class given is biochemical. For orientation: In TR-FRET formats the signal depends on donor and acceptor labels being close together.

A further data set addresses T2, TRα-LBD/RXRα (Homo sapiens, UniProt P10827).
T2 construct: TRα-LBD (Invitrogen, PV4762), or TRβ-LBD (Invitrogen, PV4764) with a GST tag were used; purchased Invitrogen (TRα-LBD); Pharmaron (RXRα) PV4762
Put plainly: In vitro binding experiment (TR-FRET SRC2-2 co-activator peptide recruitment), TRα. The class given is biochemical. Particulars: 4 h incubation at room temperature.

The target of the next data set is T3, TRα (Homo sapiens, UniProt P10827).
T3 construct: host or cells: HEK293T
T3 sequence (P10827 1-410 isoform P10827-2): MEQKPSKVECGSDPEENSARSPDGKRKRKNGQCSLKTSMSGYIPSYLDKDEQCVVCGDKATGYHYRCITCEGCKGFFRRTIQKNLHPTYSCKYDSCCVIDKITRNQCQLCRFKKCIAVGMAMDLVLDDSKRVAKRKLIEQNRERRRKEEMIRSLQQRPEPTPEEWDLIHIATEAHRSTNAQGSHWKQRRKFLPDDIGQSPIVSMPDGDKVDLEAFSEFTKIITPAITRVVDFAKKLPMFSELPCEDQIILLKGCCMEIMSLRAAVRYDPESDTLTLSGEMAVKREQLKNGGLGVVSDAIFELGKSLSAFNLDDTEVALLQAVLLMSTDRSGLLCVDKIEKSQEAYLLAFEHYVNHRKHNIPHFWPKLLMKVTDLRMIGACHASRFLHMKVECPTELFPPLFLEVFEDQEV
T3 sequence (P19793 227-458 partner limits assumed): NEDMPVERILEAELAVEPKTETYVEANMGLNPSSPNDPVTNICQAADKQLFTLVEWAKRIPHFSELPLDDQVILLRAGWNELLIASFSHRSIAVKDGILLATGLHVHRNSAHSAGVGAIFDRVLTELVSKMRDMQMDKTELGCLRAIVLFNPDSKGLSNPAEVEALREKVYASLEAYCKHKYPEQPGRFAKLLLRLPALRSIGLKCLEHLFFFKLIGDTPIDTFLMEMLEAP
Nature of the data set: In vitro TRα cell transfection experiment (GAL4 luciferase reporter, HEK293T). The class given is cell-based.

For another data set, the target named is T4, TRβ (Homo sapiens, UniProt P10828).
T4 construct: host or cells: HEK293T
T4 sequence (P10828 217-461 limits assumed): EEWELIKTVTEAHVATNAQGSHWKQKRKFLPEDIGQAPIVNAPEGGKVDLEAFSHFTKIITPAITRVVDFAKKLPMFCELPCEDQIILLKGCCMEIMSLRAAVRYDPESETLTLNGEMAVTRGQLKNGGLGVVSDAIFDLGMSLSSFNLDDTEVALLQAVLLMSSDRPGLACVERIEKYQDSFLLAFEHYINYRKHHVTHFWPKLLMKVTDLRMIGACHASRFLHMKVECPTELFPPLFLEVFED
T4 sequence (P19793 227-458 partner limits assumed): T3 sequence (P19793 227-458 partner limits assumed)
Put plainly: In vitro TRβ cell transfection experiment (GAL4 luciferase reporter, HEK293T). Format: cell-based.

Data set [1] in a line: PK experiment of cynomolgus monkeys. The class given is in vivo. Particulars: cynomolgus monkey, plasma; for AUC(0-t): read-out: Area under the curve AUC(0-t) in the case of administration; for Cmax: read-out: Peak concentration Cmax. From the text: The purpose of this experiment was to evaluate the pharmacokinetic behavior of the compound to be tested after single intravenous and intragastric administration, and to study the bioavailability after intragastric administration, providing animal experimental data for clinical studies.
Preparation of solutions for intravenous injection and intragastric administration: an appropriate amount of compound to be tested was accurately weighed, and mixed with a suitable solvent (5 vol % DMSO+10 vol % polyethylene glycol−15-hydroxystearate+85 vol % normal saline). After vortex, or ultrasound processing, a clear and transparent solution (the solution for intravenous injection administration), or a uniform suspension was obtained. The solution administrated by intravenous injection needed to be filtered through a 0.22 μm filter membrane
Experimental design: before the first dose the cynomolgus monkeys were divided into 2 groups by body weight with 3 male cynomolgus monkeys in each group, where animals in group 1 were given the compound to be tested (1 mg/kg) by single intravenous injection (IV); and animals in the 2rd group were administrated with the compound to be tested (5 mg/kg) by single intragastric administration (PO). The animals were weighed before administration, and dosages were calculated based on the weights of the animals.
Sample collection: a whole blood sample (about 0.2 mL) was collected at a specified time by venipuncture of an upper limb (or other suitable blood collection sites), and the actual blood collection time was recorded in test records. The acceptable error for one acquisition time point within 1 hour after administration is ±1 minute, and the acceptable error for other time points is ±5% of the theoretical time. All blood samples were immediately transferred to a labeled commercial centrifuge tube containing K2-EDTA. After blood sample collection, the blood sample was centrifuged at 4° C. and 3,200 g for 10 minutes, the supernatant plasma was sucked, quickly put in dry ice, and kept in a refrigerator at −70±10° C. for LC-MS/MS analysis. The collection time of both groups was 0.083 hour, 0.25 hour, 0.5 hour, 1 hour, 2 hours, 4 hours, 8 hours and 24 hours after administration.
Data processing: Area under the curve (AUC(0-t) and AUC(0-∞)), elimination half-life (T½), peak concentration (Cmax), time to reach maximum plasma concentration (Tmax), etc., were calculated by the non-compartment analysis module in Phoenix WinNonlin 7.0.

Structures are written as SMILES. Like-named read-outs stand apart in the source and are kept apart here.

T2 sequence (P19793 whole entry partner, other chains not shown, the tested form may be a part): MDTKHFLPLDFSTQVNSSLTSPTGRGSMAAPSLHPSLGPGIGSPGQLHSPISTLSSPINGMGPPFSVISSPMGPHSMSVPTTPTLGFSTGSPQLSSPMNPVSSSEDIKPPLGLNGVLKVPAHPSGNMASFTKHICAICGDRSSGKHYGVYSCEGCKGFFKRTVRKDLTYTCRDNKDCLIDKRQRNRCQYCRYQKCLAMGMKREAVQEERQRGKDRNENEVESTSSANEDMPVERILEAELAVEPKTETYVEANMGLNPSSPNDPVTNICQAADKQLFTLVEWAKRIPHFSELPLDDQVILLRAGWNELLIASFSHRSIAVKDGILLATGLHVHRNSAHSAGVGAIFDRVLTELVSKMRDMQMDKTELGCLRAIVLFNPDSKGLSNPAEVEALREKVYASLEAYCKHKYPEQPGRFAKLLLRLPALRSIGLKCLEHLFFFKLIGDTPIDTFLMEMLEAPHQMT
T1 sequence (P19793 whole entry partner, other chains not shown, the tested form may be a part): as above

Consider `CC(C)c1nc(Oc2c(Cl)cc(-n3nc(C#N)c(=O)[nH]c3=O)c3c2CCC3)ncc1O` [KH13], for which the EC50 is 0.054 µM on TRβ-LBD/RXRα, 0.132 µM at TRα-LBD/RXRα, 2.74 µM at TRα and 1.13 µM on TRβ.
For `N#Cc1nn(-c2cc(Cl)c(Oc3ncc(O)c(Cc4ccc(F)cc4)n3)c(Cl)c2)c(=O)[nH]c1=O` [KHE001], the EC50 at TRβ-LBD/RXRα worked out at 0.007 µM; on TRα-LBD/RXRα, 0.418 µM; at TRα it was 0.563 µM; at TRβ, 0.258 µM.
For `N#Cc1nn(-c2cc(Cl)c(Oc3ncc(O)c(CC4CCCCC4)n3)c(Cl)c2)c(=O)[nH]c1=O` [KHE007], in that order: 0.089 µM, 5.12 µM, 0.528 µM and 0.227 µM.
For the molecule `CC(C)c1nc(Oc2c(Cl)cc(-n3nc(C#N)c(=O)[nH]c3=O)c3c2CCO3)ncc1O` [KH07], the EC50 at TRβ-LBD/RXRα worked out at 0.048 µM; at TRα-LBD/RXRα, 0.31 µM; on TRα, 0.964 µM; at TRβ, 0.208 µM.
With `CC(C)c1nc(Sc2c(Cl)cc(-n3nc(C#N)c(=O)[nH]c3=O)cc2Cl)ncc1O` [KH17], the figures for the EC50 at TRβ-LBD/RXRα and on TRα-LBD/RXRα were 0.021 µM and 0.385 µM, respectively.
In the case of `CCC(CC)c1nc(Oc2c(Cl)cc(-n3ncc(=O)[nH]c3=O)cc2Cl)ncc1O` [KHE010], the values for the EC50 at TRβ-LBD/RXRα and at TRα-LBD/RXRα were 0.029 µM and 0.22 µM, respectively.
The like results for `N#Cc1nn(-c2cc(Cl)c(Oc3ncc(O)c(Cc4ccccc4)n3)c(Cl)c2)c(=O)[nH]c1=O` [KH09] were, in that order, 0.066 µM and 1.88 µM.
As for `CC(C)c1nc(Oc2c(Cl)cc(-n3ncc(=O)[nH]c3=O)c3c2CCC3)ncc1O` [KH14], the EC50 is 0.105 µM at TRβ-LBD/RXRα, 0.102 µM at TRα-LBD/RXRα, 0.383 µM at TRα and 0.148 µM on TRβ.
The like results for `CCC(CC)c1nc(Oc2c(Cl)cc(-n3nc(C#N)c(=O)[nH]c3=O)cc2Cl)ncc1O` [KHE009] were, in that order, 0.04 µM, 0.258 µM, 0.507 µM and 0.074 µM.
Take `CC(C)c1nc(Oc2c(Cl)cc(-c3noc(=O)[nH]3)cc2Cl)ncc1O` [KHE003]: the figures for the EC50 on TRβ-LBD/RXRα and at TRα-LBD/RXRα were 0.746 µM and 0.573 µM, respectively.
Turning to `N#Cc1nn(-c2cc(Cl)c(Oc3ncc(O)c(C4CC(F)(F)C4)n3)c(Cl)c2)c(=O)[nH]c1=O` [KHE019], the half-maximal effective concentration (EC50) on TRβ-LBD/RXRα was determined as 0.254 µM; on TRα-LBD/RXRα, 2.38 µM.
Regarding `CC(C)c1cc(Oc2c(Cl)cc(-n3nc(C#N)c(=O)[nH]c3=O)cc2Cl)n[nH]c1=O` [MGL3196, reference compound], the half-life in data set [1] (IV, 1 mg/kg, single dose, male cynomolgus monkeys, read-out: Half-life period (T1/2) (converted)) was 1.45 h. For the same molecule, the bioavailability in data set [1] (male, PO 5 mg/kg vs IV 1 mg/kg, read-out: Bioavailability (F)) came out at 8.47%. In addition, in data set [1] (male, IV, 1 mg/kg, single dose), the AUC(0-t) came to 3900 ng·h/mL and the Cmax worked out at 11200 ng/mL. Moreover, in data set [1] (male, PO, 5 mg/kg, single dose), the AUC(0-t) came out at 1650 ng·h/mL and the Cmax was 430 ng/mL.
Take `O=c1cnn(-c2cc(Cl)c(Oc3ncc(O)c(CC4CCCCC4)n3)c(Cl)c2)c(=O)[nH]1` [KHE008]: the EC50 on TRβ-LBD/RXRα is 0.067 µM; on TRα-LBD/RXRα it was 4.54 µM; on TRα, 0.049 µM; at TRβ, 0.008 µM.
On to `CC(C)c1nc(Oc2c(Cl)cc(NCC(=O)O)cc2Cl)ncc1O` [KH04], for which the half-maximal effective concentration (EC50) on TRβ-LBD/RXRα turned out to be 0.113 µM; at TRα-LBD/RXRα, 0.133 µM; on TRα, 2.49 µM; on TRβ it was 1.28 µM.
For `CC(C)c1nc(Oc2c(Cl)cc(NC(=O)C(=O)O)cc2Cl)ncc1O` [KHE021], the EC50 at TRβ-LBD/RXRα was 0.001 µM; at TRα-LBD/RXRα, 0.008 µM; on TRα it was 1.17 µM; on TRβ, 0.5 µM.
`[2H]C([2H])([2H])C(c1nc(Oc2c(Cl)cc(-n3nc(C#N)c(=O)[nH]c3=O)cc2Cl)ncc1O)C([2H])([2H])[2H]` [KH15]: the concentration giving a half-maximal response (EC50) worked out at 0.014 µM at TRβ-LBD/RXRα, 0.194 µM on TRα-LBD/RXRα, 1.46 µM at TRα and 0.205 µM on TRβ.
With `O=c1cnn(-c2cc(Cl)c(Oc3ncc(O)c(C4CC4)n3)c(Cl)c2)c(=O)[nH]1` [KHE018], the EC50 at TRβ-LBD/RXRα is 0.04 µM; on TRα-LBD/RXRα it was 0.346 µM; on TRα, 0.407 µM; at TRβ it was 0.102 µM.
The like results for `N#Cc1nn(-c2cc(Cl)c(Oc3ncc(O)c(C4CC4)n3)c(Cl)c2)c(=O)[nH]c1=O` [KHE017] were, in that order, 0.077 µM, 0.737 µM, 3.31 µM and 0.88 µM.
For `[2H]C([2H])([2H])C(c1nc(Oc2c(Cl)cc(-n3ncc(=O)[nH]c3=O)cc2Cl)ncc1O)C([2H])([2H])[2H]` [KH16], in that order: 0.012 µM, 0.106 µM, 0.138 µM and 0.019 µM.
The like results for `O=c1cnn(-c2cc(Cl)c(Oc3ncc(O)c(Cc4ccc(F)cc4)n3)c(Cl)c2)c(=O)[nH]1` [KHE002] were, in that order, 0.003 µM, 0.272 µM, 0.039 µM and 0.004 µM.
Regarding `CC(C)c1nc(Sc2c(Cl)cc(-n3ncc(=O)[nH]c3=O)cc2Cl)ncc1O` [KH18], the EC50 came to 0.011 µM at TRβ-LBD/RXRα, 0.188 µM at TRα-LBD/RXRα, 0.028 µM on TRα and 0.007 µM on TRβ.
On to `CC(C)c1nc(Oc2c(Cl)cc(NCP(=O)(O)O)cc2Cl)ncc1O` [KH02], for which, at TRβ-LBD/RXRα, the response was half-maximal at 1.06 µM (EC50).

The values above are taken from patent US20230257367A1, “NOVEL THYROID HORMONE BETA RECEPTOR AGONIST” (Chengdu Kanghong Pharmaceutical Co., Ltd., priority 2020, published 2023).
